Data reported in patent US20070049625A1, “EP2 receptor agonists for treating glaucoma” (Allergan, Inc., priority 2005, published 2007).

Assays:
Format in all cases: in vivo
Beagle dogs [1] = test: Intraocular pressure in conscious dogs by applanation pneumatonometry; details: topical to one eye, single daily dose over a 5 day period; IOP before and 2, 4, 6 hours after dosing; vehicle in other eye
Method: (§1) Measurement of intraocular pressure studies in dogs involved applanation pneumatonometry performed in Beagle dogs of both sexes. The animals remained conscious throughout the study and were gently restrained by hand. The drug was administered topically to one eye using a dropper bottle to deliver approximately a 35 μl volume, the other eye received vehicle (1% polysorbate 80 in 5 mM Tris HCI) as a control. Proparacaine at 0.25% was used for corneal anesthesia during tonometry. Intraocular pressure was determined just before drug administration and at 2, 4, 6 hours thereafter on each day of the 5 day study. Measurement of ocular surface hyperemia was performed immediately before each of the intraocular pressure readings. Ocular surface hyperemia grading was semi-quantitative and assessed according to a 5 point scoring scale used for clinical evaluations: 0=none; 0.5=trace; 1=mild; 2=moderate; and 3=severe.

[2] = tested on: Cynomolgus monkeys (Macaca fascicularis); test: Intraocular pressure in laser-induced ocular hypertensive monkeys; details: single topical dose, laser-treated ocular hypertensive eye, IOP at 2, 4, 6 and 24 hours
Method: Cynomolgus monkeys (Macaca fascicularis) were used for the intraocular pressure studies. Each animal was unilaterally laser-treated by circumferential laser photocoagulation to induce ocular hypertension in one eye. Conscious female animals were trained sit in custom design chairs and to accept applanation pneumatonometry. The drug was administered topically to one eye using a dropper bottle to deliver approximately a 35 μl volume, the other eye received vehicle (1% polysorbate 80 in 5 mM Tris HCl) as a control. Proparacaine at 0.25% was used for corneal anesthesia during tonometry. Intraocular pressure was determined just before drug administration and at 2, 4, 6, and 24 hours.

Beagle dogs [3] = test: Ocular surface hyperemia grading in dogs; details: topical to one eye, dosing over a 5 day period; 5 point scale 0=none, 0.5=trace, 1=mild, 2=moderate, 3=severe
Method: as §1

SMILES | effect on the IOP of dogs (Beagle dogs [1]) | effect on the IOP of monkeys ([2]; 0.01% w/v solution) | effect on the IOP of monkeys ([2]; 0.03% w/v solution) | effect on the IOP of monkeys ([2]; 0.1% w/v solution) | ocular surface hyperemia of dogs (Beagle dogs [3])
CC(C)(C)c1ccc(CN(Cc2cccc(OCC(=O)O)c2)S(=O)(=O)c2cccnc2)cc1 [(3-{[(4-tert-butyl-benzyl)-(pyridine-3-sulfonyl)-amino]-methyl}-phenoxy)-acetic acid] | effective for reducing IOP of the dogs | lowers the elevated IOP over 24 hours | lowers the elevated IOP over 24 hours, almost to the level of the control normotensive eye | lowers the elevated IOP over 24 hours, almost to the level of the control normotensive eye | mild ocular surface hyperemia that diminishes over time
CC(C)OC(=O)COc1cccc(CN(Cc2ccc(C(C)(C)C)cc2)S(=O)(=O)c2cccnc2)c1 [(3-{[(4-tert-butyl-benzyl)-(pyridine-3-sulfonyl)-amino]-methyl}-phenoxy)-acetic acid; isopropyl ester] | effective for reducing IOP of the dogs | – | – | lowers the elevated IOP over 24 hours almost to the level of the control normotensive eye | minimal ocular surface hyperemia
